In PMC9475448, “What a difference a methylene makes: replacing Glu with Asp or Aad in the Lys-urea-Glu pharmacophore of PSMA-targeting radioligands to reduce kidney and salivary gland uptake” (Theranostics, 2022) one finds Ki and Median survival data, which are given here for three molecules.

The structures appear in SMILES notation.

The Ki is a measure of affinity in units of concentration, obtained from inhibition or displacement.

Experiment [1] addresses T1, PSMA (Homo sapiens, UniProt Q04609).
T1 construct: endogenous in cells; host or cells: LNCaP prostate cancer cells
The experiment in a line: In vitro competition binding assay using LNCaP cells and [18F]DCFPyL as radioligand. As to conditions: displacement of [18F]DCFPyL from LNCaP cells, n = 3; read-out: PSMA binding affinity (Ki). The protocol:
The binding assays were conducted following previously published procedures using LNCaP cells and [^18F]DCFPyL as the radioligand [17]-[19]. Briefly, LNCaP cells (400,000/well) were plated onto a 24-well poly-D-lysine coated plate for 48 h. Growth media was removed and replaced with HEPES buffered saline (50 mM HEPES, pH 7.5, 0.9% sodium chloride) and the cells were incubated for 1 h at 37 °C. [^18F]DCFPyL (0.1 nM) was added to each well (in triplicate) containing various concentrations (0.5 mM - 0.05 nM) of tested nonradioactive Ga-complexed compounds. Non-specific binding was determined in the presence of 10 µM non-radiolabeled DCFPyL. The assay mixtures were further incubated for 1 h at 37 °C with gentle agitation. Then, the buffer and radioligand were removed, and cells were washed twice with cold HEPES buffered saline. To harvest the cells, 400 µL of 0.25 % trypsin solution was added to each well. Radioactivity was measured on a PerkinElmer (Waltham, MA) Wizard2 2480 automatic gamma counter. Data analyses of Ki were performed using the nonlinear regression algorithm of GraphPad (San Diego, CA) Prism 7 software.
(In a radioligand displacement assay an active substance lowers the binding of a labelled ligand.)

Experiment [2] concerns LNCaP tumor-bearing mice. The experiment in a line: Radioligand therapy study in LNCaP tumor-bearing NRG mice. As to conditions: 500 pmol nonradioactive.

T1 sequence (Q04609 whole entry): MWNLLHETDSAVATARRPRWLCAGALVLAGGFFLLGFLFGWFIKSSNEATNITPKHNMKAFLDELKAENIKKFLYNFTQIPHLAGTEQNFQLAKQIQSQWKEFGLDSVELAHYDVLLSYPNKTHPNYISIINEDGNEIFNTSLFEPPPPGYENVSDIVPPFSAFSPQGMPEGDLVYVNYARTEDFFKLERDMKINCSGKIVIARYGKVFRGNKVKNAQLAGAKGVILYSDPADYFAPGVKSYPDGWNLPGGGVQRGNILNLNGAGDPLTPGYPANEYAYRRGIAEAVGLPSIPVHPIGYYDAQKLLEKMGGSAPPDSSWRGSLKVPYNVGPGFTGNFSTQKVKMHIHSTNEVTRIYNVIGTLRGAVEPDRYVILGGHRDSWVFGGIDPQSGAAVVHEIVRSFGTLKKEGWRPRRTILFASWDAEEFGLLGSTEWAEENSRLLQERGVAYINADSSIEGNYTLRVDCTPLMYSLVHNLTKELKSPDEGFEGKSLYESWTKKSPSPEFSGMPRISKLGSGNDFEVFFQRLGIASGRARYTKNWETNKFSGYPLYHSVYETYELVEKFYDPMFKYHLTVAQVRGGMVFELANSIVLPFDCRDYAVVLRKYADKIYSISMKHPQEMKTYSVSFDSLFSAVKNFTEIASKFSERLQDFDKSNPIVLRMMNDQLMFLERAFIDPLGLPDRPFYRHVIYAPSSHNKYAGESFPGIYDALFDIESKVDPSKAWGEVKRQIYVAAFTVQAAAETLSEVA

On to `O=C([O-])CN1CCN(CC(=O)[O-])CCN(CC(=O)NCC2CCC(C(=O)NC(Cc3c4ccccc4cc4ccccc34)C(=O)NCCCCC(NC(=O)NC(CCCC(=O)O)C(=O)O)C(=O)O)CC2)CCN(CC(=O)[O-])CC1.[Lu+3]` (stereo not shown) [Lu-HTK03149], for which the Ki in experiment [1] came to 1.57 ± 0.42 nM. For the same molecule, the Median survival in experiment [2] is on record as 18 days.
`O=C([O-])CN1CCN(CC(=O)[O-])CCN(CC(=O)NCC2CCC(C(=O)NC(Cc3c4ccccc4cc4ccccc34)C(=O)NCCCCC(NC(=O)NC(CCCCC(=O)O)C(=O)O)C(=O)O)CC2)CCN(CC(=O)[O-])CC1.[Ga+3]` (single isomer, unassigned) [Ga-HTK03189A]: the Ki in experiment [1] amounted to 550 ± 35.7 nM.
Turning to `O=C([O-])CN1CCN(CC(=O)[O-])CCN(CC(=O)NCC2CCC(C(=O)NC(Cc3c4ccccc4cc4ccccc34)C(=O)NCCCCC(NC(=O)NC(CC(=O)O)C(=O)O)C(=O)O)CC2)CCN(CC(=O)[O-])CC1.[Ga+3]` (stereo not shown) [Ga-HTK03161], in experiment [1], the Ki was found to be 3.88 ± 0.66 nM.
